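Method: 48-hour compound exposure of cells in 96-well plates, five concentrations, linear interpolation of endpoints. Here, GI50 denotes the concentration required for 50% inhibition of growth.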 The source made the active and inactive calls. Rule as the data show it: active = GI50 up to about 1.1 µM and inactive = higher.
Tests used:
Experiment in all cases: growth of human tumour cells (NCI), 48 h
Malme-3M = system: Malme-3M
SR = system: SR
UACC-257 = system: UACC-257
MDA-MB-231 = system: MDA-MB-231
HOP-18 = system: HOP-18
KM-20L2 = system: KM-20L2
A498 = system: A498
NCI-H23 = system: NCI-H23
K562 = system: K562
DLD-1 = system: DLD-1
LXFL 529 = system: LXFL 529
CAKI-1 = system: CAKI-1
BT-549 = system: BT-549
DMS-273 = system: DMS-273
HCC 2998 = system: HCC 2998
SF-295 = system: SF-295
OVCAR-5 = system: OVCAR-5
SK-MEL-2 = system: SK-MEL-2
TK-10 = system: TK-10
MOLT-4 = system: MOLT-4
UO-31 = system: UO-31
SK-MEL-5 = system: SK-MEL-5
HT-29 = system: HT-29
M14 = system: M14
SW-620 = system: SW-620
IGROV-1 = system: IGROV-1
RXF 393 = system: RXF 393
U-251 = system: U-251
DMS-114 = system: DMS-114
COLO 205 = system: COLO 205
OVCAR-8 = system: OVCAR-8
NCI-H522 = system: NCI-H522
PC-3 = system: PC-3
MDA-MB-435 = system: MDA-MB-435
UACC-62 = system: UACC-62
ACHN = system: ACHN
NCI-H460 = system: NCI-H460
HCT-116 = system: HCT-116
SF-268 = system: SF-268
HL-60 = system: HL-60
SK-MEL-28 = system: SK-MEL-28
EKVX = system: EKVX
786-0 = system: 786-0
SK-OV-3 = system: SK-OV-3
SNB-19 = system: SNB-19
MCF7 = system: MCF7
HOP-92 = system: HOP-92
XF498 = system: XF498
KM12 = system: KM12
SNB-75 = system: SNB-75
CCRF-CEM = system: CCRF-CEM
DU-145 = system: DU-145
HCT-15 = system: HCT-15
SN12C = system: SN12C
SNB-78 = system: SNB-78
NCI-H226 = system: NCI-H226
A549 = system: A549
LOX IMVI = system: LOX IMVI
SF-539 = system: SF-539
RPMI-8226 = system: RPMI-8226
HOP-62 = system: HOP-62
OVCAR-4 = system: OVCAR-4

In the case of `CN1CC[C@@H](c2c(O)cc(O)c3c(=O)cc(-c4ccccc4Cl)oc23)[C@@H](O)C1`, the GI50 (Malme-3M) is reported as 124 nM (active), the GI50 (SR) is reported as 26.3 nM (active) and the GI50 (UACC-257) is reported as 55.2 nM (active). The GI50 (MDA-MB-231) was 39.4 nM (active), the GI50 (HOP-18) was 56.2 nM (active) and the GI50 (KM-20L2) was 174 nM (active). For the same compound, the GI50 (A498) was 50.7 nM (active), the GI50 (NCI-H23) was 36.5 nM (active) and the GI50 (K562) was 167 nM (active). For the same compound, the GI50 (DLD-1) was 52.8 nM (active), the GI50 (LXFL 529) was 124 nM (active) and the GI50 (CAKI-1) was 34.3 nM (active). For the same compound, the GI50 (BT-549) was 39.5 nM (active), the GI50 (DMS-273) was 109 nM (active) and the GI50 (HCC 2998) was 69.3 nM (active). The GI50 (SF-295) was 60.4 nM (active), the GI50 (OVCAR-5) was 38.4 nM (active) and the GI50 (SK-MEL-2) was 36.6 nM (active). The GI50 (TK-10) was 53.8 nM (active), the GI50 (MOLT-4) was 36.7 nM (active) and the GI50 (UO-31) was 26.6 nM (active). For the same compound, the GI50 (SK-MEL-5) was 24.8 nM (active), the GI50 (HT-29) was 94.2 nM (active) and the GI50 (M14) was 34 nM (active). The GI50 (SW-620) was 33.3 nM (active), the GI50 (IGROV-1) was 30.4 nM (active) and the GI50 (RXF 393) was 16.9 nM (active). The GI50 (U-251) was 38.5 nM (active), the GI50 (DMS-114) was 113 nM (active) and the GI50 (COLO 205) was 34 nM (active). For the same compound, the GI50 (OVCAR-8) was 40.1 nM (active), the GI50 (NCI-H522) was 65.5 nM (active) and the GI50 (PC-3) was 38.5 nM (active). For the same compound, the GI50 (MDA-MB-435) was 33.2 nM (active), the GI50 (UACC-62) was 27.3 nM (active) and the GI50 (ACHN) was 23.7 nM (active). For the same compound, the GI50 (NCI-H460) was 35.2 nM (active), the GI50 (HCT-116) was 20 nM (active) and the GI50 (SF-268) was 34.8 nM (active). For the same compound, the GI50 (HL-60) was 21.1 nM (active), the GI50 (SK-MEL-28) was 45.5 nM (active) and the GI50 (EKVX) was 88.5 nM (active). The GI50 (786-0) was 41.4 nM (active), the GI50 (SK-OV-3) was 608 nM (active) and the GI50 (SNB-19) was 40.7 nM (active). For the same compound, the GI50 (MCF7) was 23.9 nM (active), the GI50 (HOP-92) was 55.6 nM (active) and the GI50 (XF498) was 149 nM (active). The GI50 (KM12) was 30.3 nM (active), the GI50 (SNB-75) was 25.1 nM (active) and the GI50 (CCRF-CEM) was 46.8 nM (active). The GI50 (DU-145) was 41.1 nM (active), the GI50 (HCT-15) was 39.9 nM and the GI50 (SN12C) was 47.1 nM (active). For the same compound, the GI50 (SNB-78) was 213 nM (active), the GI50 (NCI-H226) was 35.7 nM (active) and the GI50 (A549) was 54.3 nM (active). For the same compound, the GI50 (LOX IMVI) was 19.1 nM (active), the GI50 (SF-539) was 34.3 nM (active) and the GI50 (RPMI-8226) was 32.6 nM (active). For the same compound, the GI50 (HOP-62) was 32.4 nM (active) and the GI50 (OVCAR-4) was 64.3 nM (active).
